{"source": "patent US20190300911A1", "about": "“METHODS FOR INCREASING THE FREQUENCY OF GENE TARGETING BY CHROMATIN MODIFICATION” (FRIEDRICH MIESCHER INSTITUTE FOR BIOMEDICAL RESEARCH, priority 2016, published 2019)", "key": {"proteasome": {"target": "T1, proteasome (Saccharomyces cerevisiae, UniProt P23724+P30656)", "T1 construct": "endogenous in cells; host or cells: Saccharomyces cerevisiae (budding yeast) cells treated with Zeocin", "experiment": "Suppression of damage-induced histone degradation by proteasome inhibition", "assay_type": "cell-based", "conditions": "Zeocin-damaged cells"}, "[1]": {"system": "core histones H2A, H2B, H3 and H4", "experiment": "Quantitative SILAC mass spectrometry of histone abundance before and after Zeocin", "assay_type": "cell-based, Saccharomyces cerevisiae", "conditions": "acute treatment (1 hour) with Zeocin", "protocol": "For SILAC based mass spectrometry, lysine and arginine double labeling of the lys2A arg4A strain yAG-06A was achieved by growth for at least ten generations in “heavy” medium as described previously in Gruhler et al. 34. After growth to LOG phase or at G1 cell cycle arrest, “light” labeled cells (or “heavy” labeled cells for label-swap controls) were treated for 1 h with Zeocin and mixed 1:1 based on exact cell count with “heavy” labeled (“light” for label-swap control), non-treated control cells. Prior to mixing, FACS and Western blot samples were taken to test for cell cycle distribution and DDC activation.\nChromatin fractionation was performed as previously described with the modification that chromatin obtained from SILAC labeled yeast samples was resuspended in Urea Buffer (50 mM TRIS pH 7.5, 6 M Urea, 1% SDS, 5 mM EDTA) sonicated for optimal solubilizing of proteins followed by a TCA protein precipitation step prior to downstream mass spectrometric analysis. To avoid carbamylation in urea buffer, samples were kept below 20° C. and quickly processed. Control samples from whole cell extract (WCE), supernatant (SUP) and chromatin fraction (CHR) were analyzed with SDS-PAGE (Novex 8-16% Tris-Glycine Gel, Invitrogen) gel electrophoresis followed by Coomassie staining. […]"}, "histone H3/H4": {"system": "histone H3/H4", "experiment": "Quantitative immunoblot analysis of histone H3/H4 loss and DDC activation", "assay_type": "cell-based, Saccharomyces cerevisiae", "protocol": "The total protein content in the relevant samples was determined with the Quant-iT protein assay kit (Thermo Scientific) and 8.75 μg of total protein was loaded and run on Criterion TGX Stain-Free 8-16% (Biorad) gels under SDS denaturing electrophoresis conditions. Rapid fluorescent detection of all proteins in the gel or on the membrane was done according to the manufacturer's specifications and protein transfer on PVDF membranes was performed using the Trans-Blot Turbo system. Rad53 protein was detected using a custom-made mouse monoclonal antibody (GenScript) against FHA2 domain of Rad53. Anti-yH2A was similarly a custom-made polyclonal antibody, that is specific for phospho-S129 in yeast H2A."}, "nucleosome occupancy": {"system": "nucleosome occupancy", "experiment": "Genome-wide nucleosome mapping (MNase-seq with Candida glabrata spike-in)", "assay_type": "cell-based, Saccharomyces cerevisiae", "conditions": "Zeocin 500 μg/ml for 1 hour; reads normalized to C. glabrata", "protocol": "Strains tested for changes in nucleosome occupancy (GA-6879 and GA-8386) were grown in appropriate media to OD600=0.8. Cultures were split into two and one of them was treated with Zeocin (500 μg/ml) for 1 hour. At this point the OD600 absorbance of each sample was measured and Candida glabrata cells were spiked in to 1/10 according to the sample OD600. Cells were washed three times with ice cold TBS (20 MM Tris.HCl pH8.0 and 150 mM NaCl) and lysed by beat beating in MNase digestion buffer (10 mM Tris pH 8.0, 50 mM NaCl, 5 mM MgCl2, 1 mM CaCl2), 1 mM beta-mercaptoethanol, 0.5 mM spermidine, 0.075% NP40). The obtained chromatin samples were MNase digested to isolate mono-nucleosomes and sequencing libraries were prepared according to the method described in Wiechens, N. et al. (Wiechens et al. 2016). Paired end libraries of MNase digested chromatin were sequenced using Illumina HiSeq technology. Fastq files containing raw reads were aligned to the S. cerevisiae and C. glabrata reference genomes by Bowtie2 with option of maximum fragment length 500 for nucleosome fragments. The nucleosome dyads at each position were calculated in a defined window flanking the transcription start site (TSS). […] The reads were further normalized by dividing the fraction of C. glabrata reads in the sample. […]"}, "Histone H3 (H3-CFP)": {"system": "Histone H3 (H3-CFP)", "experiment": "Time-lapse live cell tracking of H3-CFP in microfluidic chambers", "assay_type": "cell-based, Saccharomyces cerevisiae", "protocol": "For H3-CFP (Strain GA-3364 and derivatives) and 2-foci (Strain GA-9777) live cell fluorescent microscopy, LOG phase cells were trapped with 3 pulses of 5 psi pressure in CellASIC plates of the ONIX microfluidic perfusion system (Merck Millipore). All perfusions were done at a continuous flow rate of 2 psi pressure. After a 20-30 minute recovery phase, cells were treated for 30 minutes with the indicated amount of Zeocin prior to high-speed CFP-RFP tracking microscopy. The recovery phase of H3-CFP tagged cells was 20 minutes after which they were treated with a pulse of Zeocin for 1 hour and H3-CFP fluorescence was followed for additional 40 minutes after treatment.\nLive microscopy was done on a temperature controllable Olympus IX81 microscope with a Yokogawa CSU-X1 scanning head equipped with two EM-CCD EvolveDelta (Photometrics) cameras, an ASI MS-2000 Z-piezo stage and a PlanApo x100, NA 1.45 total internal reflection fluorescence microscope oil objective and Visiview software. For mRFP-GFP or mRFP-CFP high-speed tracking, fluorophores were excited with lasers at 561 nm (mCherry or mRFP) and 491 nm (GFP) or 440 nm (CFP) and emitted fluorescence was acquired simultaneously on separate cameras (Semrock FF01-617/73-25 filter for mCherry/mRFP and Semrock FF02-525/40-25 filter for GFP or Semrock FF01-475/42-25 for CFP). High-speed time-lapse series were conducted taking 8 optical slices per stack either every 80 ms for 1 min or 300 ms for 2 min, with 10 ms exposure times per slice respectively. Time-lapse image stacks were analyzed as in Dion et al. 9, using a custom made ImageJ (FIJI) plug-in36 to extract coordinates of locus position from the movies. Phototoxicity was tested by exposing wild-type cells (GA-6879) to standard imaging conditions and following outgrowth for 5 h by morphological analysis, comparing them with unexposed cells. […] Boxplot graphs were generated by plotting all measured distances of treated or untreated cells. […] For each frame, the distance vector of tracks in two channels was measured by selecting the two spots with minimal distance. […]"}, "S phase chromatin": {"system": "S phase chromatin", "experiment": "Super-resolution microscopy of TetR-mCherry tagged locus 3D volume (chromatin expansion)", "assay_type": "cell-based, Saccharomyces cerevisiae", "conditions": "cells fixed 30 min after exposure to different amounts of Zeocin", "description": "Structured illumination images were acquired on a Zeiss Elyra S.1 microscope with a Andor iXon 885 EMCCD camera using a HR diode 488 […] solid state laser, BP 525-580+LP 750 filter and a PLAN-APOCHROMAT 63×N.A. 1.4 oil DIC objective lens. Cells were first fixed in PFA 4%, washed 3 times in PBS and then attached to a thin SIM grade Zeiss 1.5 glass coverslip using Concanavalin A. Cells were fully sectioned by 50-65 slices with […] intervals taken at 60 ms exposures per slice using 5 rotations of the illumination grid. Brightfield images of the cells were also acquired using an X-Cite PC 120 EXFO Metal Halide lamp. Zen Black was used to process the images using automatic settings with the Raw Scale option selected. 3D stacks were then analyzed by using pixel classification and a custom Matlab script to determine the spot volumes and other features as follows. […] Features calculated at the labeled pixels and their local neighborhood are then used to train a pixel classifier based on a Random Forest ensemble learning method. […] Finally, the program generates an ascii file where the key features like volume and solidity 3D and descriptive statistics are listed for all detected nuclei and foci. The solidity factor is calculated as the proportion of pixels in the 3D convex hull. […]"}, "chromatin fiber": {"system": "chromatin fiber", "experiment": "3D distance between two differentially labeled genomic loci (chromatin flexibility)", "assay_type": "cell-based, Saccharomyces cerevisiae", "conditions": "for average inter-spot distance between lacI-GFP and TetR-mRFP tagged loci after DNA damage: loci 320 kbp apart on Chr XIV", "description": "Live microscopy was done on a temperature controllable Olympus IX81 microscope with a Yokogawa CSU-X1 scanning head equipped with two EM-CCD EvolveDelta (Photometrics) cameras, an ASI MS-2000 Z-piezo stage and a PlanApo x100, NA 1.45 total internal reflection fluorescence microscope oil objective and Visiview software. For mRFP-GFP or mRFP-CFP high-speed tracking, fluorophores were excited with lasers at 561 nm (mCherry or mRFP) and 491 nm (GFP) or 440 nm (CFP) and emitted fluorescence was acquired simultaneously on separate cameras (Semrock FF01-617/73-25 filter for mCherry/mRFP and Semrock FF02-525/40-25 filter for GFP or Semrock FF01-475/42-25 for CFP). High-speed time-lapse series were conducted taking 8 optical slices per stack either every 80 ms for 1 min or 300 ms for 2 min, with 10 ms exposure times per slice respectively. Time-lapse image stacks were analyzed as in Dion et al. 9, using a custom made ImageJ (FIJI) plug-in36 to extract coordinates of locus position from the movies. Phototoxicity was tested by exposing wild-type cells (GA-6879) to standard imaging conditions and following outgrowth for 5 h by morphological analysis, comparing them with unexposed cells. Time-series acquired from Strains GA-9227 and GA-9777 (Two-spot data) were deconvolved using Huygens Remote Manager, channel-aligned and cropped to contain one single cell/nucleus with the two respective fluorescent spots. Spot tracking over time was done with the ImageJ plugin TrackMate included in Fiji37. Boxplot graphs were generated by plotting all measured distances of treated or untreated cells. Relative MSD analysis was performed with KNIME38. For each frame, the distance vector of tracks in two channels was measured by selecting the two spots with minimal distance. The inventors performed an MSD analysis on the distance vectors for all frames and tracks with a maximum MSD(t) value bigger than 10 μm^2 were considered as outliers (due to mis-matching two distant tracks) and removed from the analysis. Relative MSD vs. t was averaged over all tracks and plotted using R."}}, "note": "Where a SMILES comes first, the peptide text is derived from it. The star is where a group is joined. Cbz = O=C(OCc1ccccc1)*", "data": [{"compound": "CC(C)C[C@@H](C=O)NC(=O)[C@H](CC(C)C)NC(=O)[C@H](CC(C)C)NC(=O)OCc1ccccc1", "note": "[MG132] (Cbz-Leu-Leu-Leu-aldehyde)", "values": [{"measurement": "effect on DNA damage-induced H3 or H4 degradation", "setting": "proteasome", "result": "suppressed"}]}, {"compound": "Zeocin", "values": [{"measurement": "levels of the histone variant Htz1 (H2A.Z)", "setting": "[1]", "result": "remained stable"}, {"measurement": "loss of all core histones H2A, H2B, H3 and H4 (ratios of non-modified histone peptides, damage over control L/H)", "setting": "[1]", "result": "20-40%"}, {"measurement": "histone depletion in histone-shutdown strain with constitutive H3/H4 expression", "setting": "histone H3/H4; growth in media with low level galactose, compared with cells with endogenous histone genes", "result": "same depletion effect"}, {"measurement": "DDC activation (yH2A signal)", "setting": "histone H3/H4; quantitative immunoblot", "result": "robust DDC activation"}, {"measurement": "relationship between histone H3/H4 loss and Zeocin treatment", "setting": "histone H3/H4; quantitative immunoblot", "result": "dose-dependent relationship"}, {"measurement": "nucleosome occupancy within promoters and across coding regions", "setting": "nucleosome occupancy", "result": "drop in nucleosome occupancy"}, {"measurement": "time of Zeocin exposure within which histone H3 degradation occurred", "setting": "Histone H3 (H3-CFP); H3-CFP fluorescence", "result": "≤ 30", "unit": "min"}, {"measurement": "Histone H3 degradation compared to undamaged cells", "setting": "Histone H3 (H3-CFP); H3-CFP fluorescence, within 30 minutes of Zeocin exposure", "result": "~30", "unit": "%"}, {"measurement": "DSBs per genome generated", "setting": "Histone H3 (H3-CFP); pulse-treated for 1 h with Zeocin", "result": "4-7 DSBs per genome"}, {"measurement": "decompaction of S phase chromatin (3D TetR-mCherry foci volumes)", "setting": "S phase chromatin", "result": "dose-dependent decompaction"}, {"measurement": "average inter-spot distance between lacI-GFP and TetR-mRFP tagged loci after DNA damage", "setting": "chromatin fiber; G1 cells, printed 0.97-1.2 (before-after)", "result": 1.2, "unit": "μm"}, {"measurement": "average inter-spot distance between lacI-GFP and TetR-mRFP tagged loci after DNA damage", "setting": "chromatin fiber; S-phase cells, printed 0.99-1.12 (before-after)", "result": 1.12, "unit": "μm"}, {"measurement": "inter-spot dynamics and distances between CFP-lacI and TetR-mRFP tagged foci", "setting": "chromatin fiber; loci 50 kbp apart on Chr III, real time", "result": "robust increase"}]}]}
